Assay [1] deals with mouse pancreatic islets. As to the kind of experiment: Insulin secretion from mouse pancreatic islets. Type of assay: cell-based. To be noted: 25 mM glucose, 1 h; Fc fusion proteins 4 μg/ml, peroxovanadate 10 μM; compared with Fc. From the text: Pancreatic islets were isolated from NMRI mice for all experiments, except for the experiments with male ephrin-A5-/- and control littermates, which were C57BL/6 (Knoll et al. (2001) Development 128, 895). All mice used were 8-10 weeks old. Human pancreatic islets were isolated from a perfused human pancreas by using a protocol approved by the Ethical Research Committee of the Technical University Medical School Dresden and according to the law of the State of Saxony. Mouse and human islets were cultured overnight in Dulbecco's modified Eagle's medium (DMEM) containing 11 mM glucose (Gibco), supplemented with 10% heat inactivated fetal calf serum (FCS), 100U/ml Penicillin, 100 μg/ml Streptomycin, 1.5 g/L NaHCO3 in a humidified atmosphere (5% CO2, 37° C.). […]
For insulin secretion measurements, islets or MIN6 cells were starved for 1 h in Krebs Ringer Buffer (KRB) containing 115 mM NaCl, 5 mM KCl, 1.2 mM KH2PO4, 1 mM MgSO4, 2.5 mM CaCl2, 24 mM NaHCO3, 2 mM glucose, 25 mM HEPES (pH 7.4), and 0.1% bovine serum albumin. […] The amount of secreted insulin was measured in the medium, and islets or MIN6 cells were subsequently dissolved in RIPA buffer to measure insulin content and total protein content. […] Secreted insulin and insulin content were measured by using ultra-sensitive rat insulin ELISA kit (Crystal Chem inc.). The total protein content was measured using BCA kit (Molecular Probes). […]

Another assay concerns MIN6 cells. In words: Insulin secretion from MIN6 cells. Type of assay: cell-based, mouse. To be noted: 25 mM glucose. From the text:
MIN6 cells (Miyazaki et al. (1990) Endocrinol. 127, 126) at passages 37-47 were maintained as previously described (Nikolova et al. (2006) Dev. Cell 10, 397). The cells were electroporated with pEGFP, pEGFP-wtEphA5 (Gao et al. (1998) Proc. Natl. Acad. Sci. U.S.A. 95, 5329), pEGFP-DN-EphA5 (Gao et al. (1998) Proc. Natl. Acad. Sci. U.S.A. 95, 5329), pEGFP-ephrin-A5, (Wimmer-Kleikamp et al. (2004) J. Cell Biol. 164, 661), pEGFP-wtRac1, pEGFP-DN-Rac1 (Rac1N17) (Hall (2005) Biochem. Soc. Trans. 33, 891) and pcDNA-Cx36 constructs (Ravier et al. (2005) Diabetes 54, 1798); siRNA against firefly luciferase (control siRNA), ephrin-A5 and Cx36 by using Amaxa nucleofection (Amaxa biosystems).
For insulin secretion measurements, islets or MIN6 cells were starved for 1 h in Krebs Ringer Buffer (KRB) containing 115 mM NaCl, 5 mM KCl, 1.2 mM KH2PO4, 1 mM MgSO4, 2.5 mM CaCl2, 24 mM NaHCO3, 2 mM glucose, 25 mM HEPES (pH 7.4), and 0.1% bovine serum albumin. After starvation, medium was exchanged for the same buffer +/− Fc fusion proteins to measure basal secretion, or for KRB containing 25 mM glucose +/− Fc fusion proteins to measure glucose-stimulated insulin secretion, during 1 h incubation. When Fc fusion proteins were used, islets were continuously shaken (300-500 rpm) to facilitate access of Fc fusion proteins to islet β-cells. The amount of secreted insulin was measured in the medium, and islets or MIN6 cells were subsequently dissolved in RIPA buffer to measure insulin content and total protein content. Secreted insulin was normalized to total insulin content and total protein content, and presented as % of basal control insulin secretion. In all histograms, the first column represents the basal control (=100%), except in FIG. 3C, in which the third column is taken as basal control. Secreted insulin and insulin content were measured by using ultra-sensitive rat insulin ELISA kit (Crystal Chem inc.). The total protein content was measured using BCA kit (Molecular Probes). […]

The subject of the next assay is EphA5. As to the kind of experiment: EphA5 immunoprecipitation and phosphotyrosine Western blot, MIN6 cells. Type of assay: cell-based, mouse. To be noted: 10 μM, 25 mM glucose, 5 min. The procedure: MIN6 cells and pancreatic islets were lysed in RIPA buffer, supplemented with protease and phosphatase inhibitors. 1 μg total protein, isolated from MIN6 cell lysates or 500 ng total protein, isolated from islet lysates, were used for immunoprecipitation with 1:1,000-diluted rabbit-anti-EphA5 (Santa Cruz) and protein-A beads (Amersham). For immunoprecipitation/pull-down of Rac1-GTP with Pak1-PBD (P21-activated kinase-1-P21 Binding Domain) and Westem blots, a Rac1 Activation StressXPress Kit (Biomol) was used. The immunoprecipitates were separated on 4-12% gradient SDS-polyacrylamide gels (Invitrogen) and transferred onto a PVDF membrane (Amersham). For western blots, 1:500-diluted rabbit-anti-EphA5 antibody (Santa Cruz), 1:1,000-diluted mouse-anti-PY antibody (Biomol) and 1:200-diluted rabbit-anti-Rac1 antibody (Santa Cruz) were used. 1:10,000-diluted HRP-conjugated donkey-anti-rabbit antibody (Dianova) and 1:5,000-diluted HRP-conjugated goat-anti-mouse antibody (Dianova) were used as secondary antibodies. Western blots were developed using an ECL system (Amersham). The intensities of EphA5 and Rac1 bands were normalized to the intensities of total EphA5 and Rac1, respectively, and presented as % of basal control. The intensities of the bands were quantified by using TotalLab software (Stratagene).

Assay [2] relates to mouse pancreatic islets. To be noted: 10 μM, Gogg et al. (2001); cited from earlier work.

Like-named read-outs stand apart in the source and are kept apart here.

On to peroxovanadate, for which the glucose-stimulated insulin secretion result in the assay on mouse pancreatic islets [1] is “reduced”; in the assay on MIN6 cells (confluent MIN6 cells, 1 h, Fc fusion proteins 4 μg/ml, peroxovanadate 10 μM, compared with Fc), “reduced”; in the assay with mouse pancreatic islets [2] it was “strongly reduced”. In addition, in the assay with EphA5, the “glucose-induced EphA5 dephosphorylation” value is reported as “effectively prevented”. In addition, the “EphA5 phosphorylation levels at stimulatory conditions” value in the assay with EphA5 (relative to basal levels) is “increased”.

B1: wt EphA5: full-length EphA5 protein over-expressed in MIN6 cells from pEGFP-wtEphA5 (protein, UniProt Q60629 1-876, looked up)
chain: MRGSGPRGAGHRRTQGRGGGDDTPRVPASLAGCYSAPLKGPLWTCLLLCAALRTLLASPSNEVNLLDSRTVMGDLGWIAFPKNGWEEIGEVDENYAPIHTYQVCKVMEQNQNNWLLTSWISNEGASRIFIELKFTLRDCNSLPGGLGTCKETFNMYYFESDDENGRSIKENQYIKIDTIAADESFTELDLGDRVMKLNTEVRDVGPLSKKGFYLAFQDVGACIALVSVRVYYKKCPSVVRHLAIFPDTITGADSSQLLEVSGSCVNHSVTDDPPKMHCSAEGEWLVPIGKCMCKAGYEEKNGTCQAPSPVTNVKKGKIAKNSISLSWQEPDRPNGIILEYEIKYFEKDQETSYTIIKSKETSITAEGLKPASVYVFQIRARTAAGYGVFSRRFEFETTPVSVAASNDQSQIPIIAVSVTVGVILLAVMIGFLLSGSCCDCGCGRASSLCAVAHPSLIWRCGYSKAKQDPEEEKMHFHNGHIKLPGVRTYIDPHTYEDPNQAVHEFAKEIEASCITIERVIGAGEFGEVCSGRLKLPGKRELPVAIKTLKVGYTEKQRRDFLGEASIMGQFDHPNIIHLEGVVTKSKPVMIVTEYMENGSLDTFLKKNDGQFTVIQLVGMLRGIAAGMKYLSDMGYVHRDLAARNILINSNLVCKVSDFGLSRVLEDDPEAAYTTRGGKIPIRWTAPEAIAFRKFTSSSDVWSYGIVMWEVVSYGERPYWEMTNQDVIKAVEEGYRLPSPMDCPAALYQLMLDCWQKDRNSRPKFDEIVNMLDKLIRNPSSLKTLVNASSRVSTLLAEHGSLGSGAYRSVGEWLEAIKMGRYTEIFMENGYSSMDAVAQVTLEDLRRLGVTLVGHQKKIMSSLQEMKVQMVNGMVPV
modifications: full-length EGFP fusion
notes: full-length EphA5 protein over-expressed in MIN6 cells from pEGFP-wtEphA5
Regarding B1, in the assay with MIN6 cells (over-expression in confluent MIN6 cell monolayers, vs empty vector), the glucose-stimulated insulin secretion result is reported as “decreased”. For the same molecule, in the assay with MIN6 cells (over-expression, 10 μM peroxovanadate, vs empty vector/PV), the “glucose-stimulated insulin secretion in PV-treated MIN6 cells” value was “reduced”.

(Values after patent US20100021950A1, “SCREENING METHOD FOR ANTI-DIABETIC COMPOUNDS” (priority 2007, published 2010).)
